One compound from US7897620B2, “Methods of using anti-inflammatory compounds” (Cambridge Enterprise Limited, priority 2007, dated 2011) can be followed below.

For this assay, the system named is RANTES induced THP-1 cell migration. Description: ChemoTx transwell migration assay, RANTES induced migration of THP-1 cells. In kind it is cell-based. The conditions noted are these: Homo sapiens, maximal dose of chemoattractant, read-out: ED50 RANTES. As to the method:
In principle, this assay consists of two chambers separated by a porous membrane. The chemoattractant is placed in the lower compartment and the cells are placed in the upper compartment. After incubation for a period at 37° C. the cells move towards the chemoattractant, and the number of cells in the lower compartment is proportional to the chemoattractant activity (relative to a series of controls).
The THP-1 cell line (European Cell Culture Collection) were used as the leukocyte cell population.
First, the cell suspension to be placed in the upper compartment is prepared. The THP-1 cells are pelleted by centrifugation (770×g; 4 mins) and washed with Geys Balanced Salt Solution with 1 mg/ml BSA (GBSS+BSA). This wash is then repeated, and the cells repelleted before being resuspended in a small volume of GBSS+BSA for counting, for example using a standard haemocytometer.
The volume of GBSS+BSA is then adjusted depending on the number of cells present so that the cells are at final density of 4.45×10^6 cells per ml of GBSS+BSA. This ensures that there are […] THP-1 cells in each 25 μl of the solution that will be placed in the upper chamber of the plate.
To test a single compound for its ability to inhibit chemokine induced migration, it is necessary to prepare two lots of cells. The suspension of THP-1 cells at 4.45×10^6 cells/ml is divided into two pots. […]

Each structure is given as a SMILES string.

As to `O=C1NCCCC[C@@H]1NC(=O)C12CC3CC(CC(C3)C1)C2` [(II), 3-(adamantane-1-carbonylamino)-caprolactam], the EC50 stood at 0.1 nM.
